Source: the NIST ThermoML archive (doi:10.1016/j.fluid.2014.10.037)
Values joined by “and” are separate entries in the source; they are usually repeats but may differ in a detail not shown here. Identical values can stand only once. ± gives the expanded uncertainty stated by the source.

Settings: Liquid, Closed cell (Static) method

O=Cc1ccco1 [2-furaldehyde]
Settings	vapor or sublimation pressure [kPa]
353.2 K	5.9 ± 0.1
373.4 K	13.6 ± 0.2
408 K	46.3 ± 0.2

OCc1ccco1 [2-hydroxymethylfuran]
Settings	vapor or sublimation pressure [kPa]
353.3 K	2.6 ± 0.1
373 K	7 ± 0.1
407.9 K	30.1 ± 0.2

Cc1ccco1 [2-methylfuran]
Settings	vapor or sublimation pressure
353.8 K	161.8 ± 1.2 kPa and 162.6 ± 1.1 kPa
357.5 K	181.5 ± 1.3 kPa and 181.7 ± 1.3 kPa
358.3 K	186.5 ± 1.3 kPa
362.4 K	210.5 ± 1.4 kPa
362.5 K	211.1 ± 1.4 kPa
363.1 K	214.9 ± 1.4 kPa
367.2 K	242.1 ± 1.3 kPa
367.4 K	242.7 ± 1.5 kPa
367.9 K	246 ± 1.5 kPa
373.4 K	285.3 ± 1.5 kPa
373.6 K	286.4 ± 1.5 kPa
373.9 K	288.4 ± 1.5 kPa
398.2 K	527.6 ± 2.5 kPa
398.4 K	530.3 ± 2.2 kPa
398.8 K	533.8 ± 2.3 kPa
403 K	587.6 ± 3.5 kPa
403.2 K	591.7 ± 3.2 kPa
403.3 K	592.3 ± 3.5 kPa
408.4 K	667.2 ± 3.6 kPa
408.6 K	670.2 ± 3.7 kPa
409 K	676.7 ± 3.7 kPa

c1ccoc1 [furan]
Settings	vapor or sublimation pressure [kPa]
353.4 K	455.1 ± 3.1
373.1 K	735.6 ± 4.4
407.9 K	1513.3 ± 6

CC(C)O [propan-2-ol]
Settings	vapor or sublimation pressure [kPa]
353.3 K	93.8 ± 1.1
373.5 K	200.1 ± 1.9
408.3 K	593.8 ± 2.7
